Here are results for 3 compounds from patent US9840532B2, “5′-substituted nucleoside compounds” (Eli Lilly and Company, priority 2015, dated 2017).

For experiment [1], the system named is PRMT5-dependent alternative splicing of MDM4 in A375 melanoma cells. Kind of experiment: MDM4 Exon5/6 qPCR Assay in A375 Tumor Cells. The format is cell-based. Conditions: Homo sapiens, A-375, 72 hr, Mean ± SEM. How it is done:
Culture A375 tumor cells (ATCC), a melanoma cancer cell line, to 70%-90% confluence in T150 flasks with the growth medium (DMEM; HYCLONE™ #SH30022 with 10% FBS; GIBCO® 10082-147 or equivalent). Treat the cells with standard trypsin/EDTA treatment for 3 min and aspirate and wash with PBS to release the adherent cells from the culture flask. Seed the cells into a 96 well plate (Costar 3596) at 5000/well in growth medium (90 μL). Incubate the plate overnight at 37° C. and 5% CO2 and treat the cells with test compound at serial dilutions ([…], final DMSO addition of 0.2% yield) for 72 hr. Measure activity relative to maximum (2.0 μM of Example 2 and minimum (0.2% DMSO) controls.
On Day 5 after incubation, remove the medium from the culture plates and wash the cells twice with cold PBS (150 μL/well). Prepare Lysis Working Reagent from the TAQMAN® Gene Expression Cells-to-CT Kit (INVITROGEN™ cat. # AM1729) by dilution of DNAse 1 into Lysis Solution at 1/100. Add Lysis Working Reagent (50 μL/well) to the cell plates, mix well, and incubate at room temperature for 5 min Add kit stop solution (5 μL) to each well, mix the wells, and incubate for 2 min at room temperature. Prepare Reverse Transcriptase Master Mix in the following volume ratios; RT buffer: Nuclease-free water: RT Enzyme at 62.5:31.25:6.25. Add RT mix (48 μL/well) to each well of a 96-well NUNC™ plate (THERMO SCIENTIFIC™ #260860). Add RT mix (20 μL) and each cell lysate sample (5 μL) into a 384 PCR plate (Clear Optical Reaction Plate, cat. #4309849, APPLIED BIOSYSTEMS®) quadrant 1 and add a second addition of RT Mix and cell lysate to quadrant 3. For the RT reaction, seal the plates and then place them in a thermal cycler set at 37° C. for 60 min; 95° C. for 5 min; stop at 4° C. For qPCR, prepare MDM4 exon 5 primers (Life Technologies Hs00967240-ml) and exon 6 primers (Life Technologies Hs00967242-ml) separately in the following volume ratios of RT mix: H2O: exon probe at 10:6:1. Add Exon 5 (17 μL) to odd columns of a 384 PCR plate and add exon 6 (17 μL) to the even columns. Add cDNA (3 μL, from the RT plate) by quadrant stamping to each well of the qPCR plate containing the 17 μL exon primer solution. In this manner, perform qPCR for both exons on cDNAs from a single RT reaction on an individual cell lysate. Seal the plates, spin, and place on a real-time PCR instrument (Life Technologies ViiA7 Real-Time PCR). […]
Retrieve CT data from the real-time PCR reader and perform the following calculations, where “CPD” is the value from compound-treated samples, and “DMSO” is the minimum control sample, using an Excel template: (Exon 6 CT CPD−Exon 6 CT DMSO)−(Exon 5 CT CPD−Exon 5 CT DMSO)=ΔCT 2^(−ΔCT)=Fold Change […]
For orientation: In qPCR the cycle at which signal appears reflects the starting amount.

Experiment [2] relates to Namalwa (Burkitt's lymphoma) cells. Nature of the experiment: Xenograft tumor model, lymphoma (Namalwa). Type of experiment: in vivo, mouse. Conditions: oral gavage. The method, then: (§1) The purpose of this assay is to measure in a mouse model of cancer the reduction in tumor volume in response to test compound administration.
(§2) Grow A375 (melanoma) cells in DMEM/High glucose (HYCLONE™ cat. # SH30022) with 10% HI FBS (GIBCO® cat. #10082-147). Grow Will-2 (DLBCL) cells in RPMI 1640 with L-glutamine and 20% heat inactivated FBS. Grow Namalwa (Burkitt's lymphoma) cells (ATCC) in RPMI 1640 media supplemented with L-glutamine, 25 mM HEPES (GIBCO® 22400-089), 1 mM sodium pyruvate and 7.5% FBS. Grow Molt 4 cells in RPMI 1640 with L-glutamine, 25 mM HEPES [GIBCO 22400-089], 1 mM sodium pyruvate, and 10% FBS. Harvest cells and inject subcutaneously onto the rear flank of nude mice (A375: 5×10^6 cells/animal, mixed 1:1 with MATRIGEL®; Will-2; 1×10^7 cells/animal; Namalwa: 2×10^6 cells/animal; Molt 4: : 5×10^6 cells/animal, mixed 1:1 with MATRIGEL®). When tumors are established (approximately 200 mm^3, 7-21 days after implant), randomize animals, and group them into control and test groups. Formulate the test compound in 1% HEC/0.25% TWEEN®-80/0.05% Antifoam. Administer test compound and vehicles by oral gavage. Determine tumor response by tumor volume measurement (caliper) performed twice a week during the course of treatment and report as the percent inhibition of tumor volume versus the vehicle control group.

Experiment [3] deals with Will-2 (DLBCL) cells. Nature of the experiment: Xenograft tumor model, DLBCL (WILL-2). To be noted: oral gavage. The format is in vivo, mouse. How it is done: as §1, §2

As a reminder, the EC50 is the concentration needed to bring the measured effect to its halfway point. Low readings indicate greater potency, high ones weaker potency.

In turn, `Nc1ncnc2c1ccn2[C@@H]1O[C@H]([C@H](O)c2ccccc2)[C@@H](O)[C@H]1O` [Example 2, (2R,3R,4S,5R)-2-(4-Aminopyrrolo[2,3-d]pyrimidin-7-yl)-5[(R)-hydroxy(phenyl)methyl]tetrahydrofuran-3,4-diol] returned a half-maximal effective concentration (EC50) in experiment [1] of 36.7 nM.
On to `Nc1ncnc2c1ccn2[C@@H]1O[C@H]([C@H](O)c2ccc(Cl)cc2)[C@@H](O)[C@H]1O` [Example 1, (2R,3R,4S,5R)-2-(4-Aminopyrrolo[2,3-d]pyrimidin-7-yl)-5-[(R)-(4-chlorophenyl)-hydroxy-methyl]tetrahydrofuran-3,4-diol], for which the “percent inhibition of tumor volume versus vehicle” value in experiment [2] (2 mg/kg BID for 14 days) amounted to 74%; in experiment [2] (5 mg/kg QD for 14 days), 61%; in experiment [3] (5 mg/kg QD for 14 days), 74%. In experiment [3] (2 mg/kg BID for 14 days), this compound came in with a tumor regression of 50%. Moreover, in experiment [1], the response was half-maximal at 16.8 nM (EC50).
Turning to `C[C@@](O)(c1ccc(Cl)cc1)[C@H]1O[C@@H](n2ccc3c(N)ncnc32)[C@H](O)[C@@H]1O` [Example 3, (2R,3R,4S,5S)-2-(4-Aminopyrrolo[2,3-d]pyrimidin-7-yl)-5-[(1R)-1-(4-chlorophenyl)-1-hydroxy-ethyl]tetrahydrofuran-3,4-diol], in experiment [1], the midpoint of the response, the EC50, lay at 42.4 nM.
